Measured values reported in US20260193180A1, “AUTOPHAGY INDUCING COMPOUNDS AND USES THEREOF” (SAMSARA THERAPEUTICS INC., priority 2022, published 2026).

Experiments:
[1] = system: C57BL/6JRj mice injured by intra-nigral injections of alpha-synuclein and CBE; assay: Mouse model of Parkinson's disease (intra-nigral alpha-synuclein protofibrils plus CBE); format: in vivo; details: 30 mg/kg per os once a day
Text: This model (run by Neuro-Sys SAS, France) uses C57BL/6JRj mice injured by intra-nigral injections of a solution containing protofibrils of alpha-synuclein (α-syn, precisely quantified by automatic Western Blot) and combined with pharmacological inhibition of GBA by conduritol B epoxide (CBE), in aged mice. The model mimics the main pathologies of PD: loss of dopaminergic neurons in the substantia nigra, neuroinflammation, deficits in motor coordination and synucleinopathy (α-syn aggregation). Any substance with positive effects in this model may be useful as a new therapeutic agent for the treatment or prevention of PD.
• Type of animal: C57BL/6JRj (Male) • Age: 18 months old • Supplier: Janvier Labs • Animal number: 10 mice per group • Acclimation and clinical signs: Animals arrived on site 7 days (one week) before the experiment to allow optimal acclimation.
Overview: CBE was administered along with the test compounds, starting on the day of the stereotaxic injections of the α-syn oligomer preparation.
Test compounds at specific concentrations (see below) were administered per os (gavage or drinking water). • Test compound treatment: The test compounds were solubilized (vehicle=water), aliquoted and stored at −20° C. Aliquots were thawed overnight at 4° C. and given once a day. Treatment started on the day of the stereotaxic injections of α-syn preparation (Day 0). Treatment was administrated until the last day of the experiment (Day 28; =day of dissection). • CBE dose and administration: 50 mg/kg, Intraperitoneal (i.p.), twice a day. • CBE treatment: Administration of CBE (vehicle=saline [NaCl 0.9%] started on the day of the stereotaxic injections of α-syn preparation (Day 0). Treatment was administrated until the last day of the experiment (Day 28; =day of dissection), • Untreated control: vehicle (saline; i.p.) administered twice a day, • Stereotaxic injections of α-syn oligomers: Human α-syn peptide (stock at 69 μM in water at −20° C.) was reconstituted at 50 μM in NaCl, 0.9% (final concentration). All mice in compound treated groups were subjected to surgery and received 2.5 μL of α-syn solution. Mice were anesthetized by isoflurane (4%, for induction), in an induction chamber coupled with a vaporizer and to an oxygen concentrator. Mice were placed on the stereotaxic frame. Anesthesia was maintained by isoflurane (2%) with a face mask coupled to the isoflurane vaporizer and oxygen concentrator machine. The skull was exposed and holes were drilled. The α-syn preparation was bilaterally injected into the SNpc, at the following coordinates: A-P, −0.3 mm; M-L, +0.12 mm; D-V, −0.45 mm. Depth of anesthesia and rectal temperature were verified every 5 minutes. After surgery, mice were allowed to recover before being placed back in the cage.
• i) Body mass • ii) Assessment of motor coordination: bar test and grid walking test • iii) Dopaminergic Tyrosine hydroxylase (TH)-positive neuron survival in the substantia nigra pars compacta (SNpc), i.e. a measure of the number of TH neurons in the SNpc • iv) α-syn area in TH positive neurons (a measure of the degree of aggregation of α-syn in TH positive neurons, in the SNpc)
• Overall: For overall evaluation and body mass, mice were observed daily, and body mass was monitored prior to drug administration. • Assessment of motor coordination: bar test.
In the third week (Week 3) post-surgery, motor coordination of the mice was assessed with the bar test. The principle of the test is based on the capacity of the mice to cross a horizontal bar connected to a platform (18 mm of diameter, 60 cm long). The test requires good coordination between front and hindlimbs, and good balance. Mice are placed at one extremity of the bar and need to reach a platform located at the other side of the bar. Motor coordination was studied after two training sessions, one and two days before the test. Three sessions were recorded by a video camera system. […]

Prp-TDP43 mice = assay: Mouse model of Amyotrophic Lateral Sclerosis (ALS); details: 30 mg/kg once per day, oral gavage; for increase in mean CAMP amplitude compared to the vehicle controlled group: sciatic nerve

CCOc1ccc(Cl)cc1CN1CC[C@@H](CN)C1.Cl [Compound 12, (S)-(1-(5-chloro-2-ethoxybenzyl)pyrrolidin-3-yl)methanamine hydrochloride]
bar test: decrease in the mean time required to cross the bar compared to the α-syn/CBE injured group ([1]; week 3): 21%
bar test: reduction in the mean number of steps required to cross the bar compared to the α-syn/CBE injured group ([1]; week 3): 2%
bar test: reduction in the number of misplaced steps (failed strides) compared to the α-syn/CBE injured group ([1]; week 3): 33%
decrease in the aggregation of α-syn in TH neurons (α-syn area) compared to the α-syn/CBE injured group ([1]; week 4): 10%
grid walking test: increase in the total distance travelled during the test ([1]; week 4): 12%
grid walking test: reduction in the mean number of failures per meter (number of missed steps) ([1]; week 4): 21%
increase in the number of dopaminergic TH positive neurons in the SNpc compared to the α-syn/CBE injured group ([1]; week 4): 36%
body weight compared to the vehicle group (Prp-TDP43 mice): increase
mortality (Prp-TDP43 mice; 60 days): No mortality was observed
pathological clinical signs (Prp-TDP43 mice; 60 days): No pathological clinical sign was observed
decrease in mean NfL concentration (plasma) compared to the vehicle controlled group (Prp-TDP43 mice; at three months of age): 54%
increase in mean NCV (nerve conduction velocity) compared to the vehicle controlled group (Prp-TDP43 mice; at three months of age): 139%
increase in mean rotarod latency compared to the vehicle controlled group (Prp-TDP43 mice; at three months of age): 99%
increase in mean CAMP amplitude compared to the vehicle controlled group (Prp-TDP43 mice; at three months of age): 73%
decrease in mean NfL concentration (plasma) compared to the vehicle controlled group (Prp-TDP43 mice; at two months of age): 48%
increase in mean rotarod latency compared to the vehicle controlled group (Prp-TDP43 mice; at two months of age): 76%
increase in mean CAMP amplitude compared to the vehicle controlled group (Prp-TDP43 mice; at two months of age): 39%
